Where only a bound is given, the exact number is not on record here.

Series [1] has as its system Blumeria qraminis f. sp. tritici (Erysiphe qraminis f. sp. tritici). In words: Blumeria graminis f. sp. tritici / wheat / leaf disc preventative (powdery mildew on wheat). Type of series: in vivo. Particulars: foliar, wheat leaf segments cv. Kanzler, inoculated 1 day after application, assessed 6-8 days after application, read-out: inhibit fungal infestation (percent disease control compared to untreated).

For series [2], the system named is Phaeosphaeria nodorum (Septoria nodorum). In words: Phaeosphaeria nodorum (Septoria nodorum) / wheat / leaf disc preventative (glume blotch). Type of series: in vivo. To be noted: Parastagonospora nodorum, foliar, wheat leaf segments cv. Kanzler, inoculated 2 days after application, assessed 5-7 days after application, read-out: inhibit fungal infestation (percent disease control compared to untreated).

The test system of a further series is Plasmopara viticola. In words: Plasmopara viticola / grape / leaf disc preventative. Type of series: in vivo. To be noted: foliar, grape vine leaf disks, inoculated 1 day after application, assessed 6-8 days after application, read-out: inhibit fungal infestation (percent disease control compared to untreated).
The next series relates to Pythium ultimum. In words: Pythium ultimum / liquid culture (seedling damping off). The series is classed as cell-based. Particulars: Globisporangium ultimum, liquid culture in PDB, 24° C., 2-3 days after application, read-out: inhibit fungal infestation (inhibition of growth determined photometrically).
The next series deals with Phytophthora infestans. In words: whole plant or invertebrate. The series is classed as in vivo. To be noted: in Solanum lycopersicum, foliar, read-out: inhibit fungal infestation (percent disease control compared to untreated).

As for `C#Cc1cnc2c(C)cc(OC(SC)C(=O)NC(C)(C)c3ccccn3)cc2c1` (stereo not shown) [Compound 7], the melting point is 113 °C. Further, the inhibition at 200 ppm in series [1] was at least 80%. In series [2], the inhibition at 200 ppm is at least 80%. Further, the inhibition at 200 ppm with Plasmopara viticola is at least 80%. The inhibition at 200 ppm in the series on Pythium ultimum is at least 80%. Moreover, in the series with Phytophthora infestans, the inhibition at 200 ppm is at least 80%.
The compound `CSC(Oc1ccc2ncc(Br)cc2c1)C(=O)NC(C)(C)c1ccccn1` (stereo not shown) [Compound 8] displayed a melting point of 105 °C. Also, in series [1], the inhibition at 200 ppm was at least 80%. Moreover, the inhibition at 200 ppm in series [2] is at least 80%. In the series on Plasmopara viticola, the inhibition at 200 ppm is at least 80%. Besides, the inhibition at 200 ppm in the series with Pythium ultimum is at least 80%. Moreover, the inhibition at 200 ppm in the series with Phytophthora infestans was at least 80%.
The compound `CSC(Oc1cc(C)c2ncc(Br)cc2c1)C(=O)NC(C)(C)c1ccccn1` (stereo not shown) [Compound 9] returned a melting point of 123 °C. The inhibition at 200 ppm in series [1] was at least 80%. The inhibition at 200 ppm in series [2] was at least 80%. For the same compound, the inhibition at 200 ppm in the series on Plasmopara viticola is at least 80%. Besides, in the series with Pythium ultimum, the inhibition at 200 ppm was at least 80%. Further, the inhibition at 200 ppm in the series with Phytophthora infestans is at least 80%.
Turning to `C#Cc1cnc2c(Cl)cc(OC(SC)C(=O)NC(C)(C)c3ccccn3)cc2c1` (stereo not shown) [Compound 10], the melting point is 153 °C. Also, the inhibition at 200 ppm in series [1] is at least 80%. In addition, the inhibition at 200 ppm in series [2] is at least 80%. The inhibition at 200 ppm with Plasmopara viticola is at least 80%. The inhibition at 200 ppm in the series on Pythium ultimum was at least 80%. In addition, the inhibition at 200 ppm with Phytophthora infestans is at least 80%.
`C#Cc1cnc2c(F)cc(OC(SC)C(=O)NC(C)(C)c3ccccn3)cc2c1` (stereo not shown) [Compound 11] yielded a melting point of 125 °C. Further, in series [1], the inhibition at 200 ppm was at least 80%. Further, in series [2], the inhibition at 200 ppm is at least 80%. The inhibition at 200 ppm in the series on Plasmopara viticola is at least 80%. For the same compound, in the series with Pythium ultimum, the inhibition at 200 ppm is at least 80%. The inhibition at 200 ppm with Phytophthora infestans was at least 80%.
As for `C#Cc1cnc2c(Cl)cc(OC(OC)C(=O)NC(C)(C)c3ccccn3)cc2c1` (stereo not shown) [Compound 12], the melting point is 108 °C. For the same compound, the inhibition at 200 ppm in series [1] was at least 80%. In series [2], the inhibition at 200 ppm was at least 80%. The inhibition at 200 ppm in the series on Plasmopara viticola was at least 80%. In addition, the inhibition at 200 ppm in the series on Pythium ultimum was at least 80%. In the series on Phytophthora infestans, the inhibition at 200 ppm was at least 80%.
`C#Cc1cnc2ccc(OC(CC)C(=O)NC(C)(C)c3ccccn3)cc2c1` (stereo not shown) [Compound 13] gave a melting point of 96 °C. Besides, the inhibition at 200 ppm in series [1] was at least 80%. Moreover, the inhibition at 200 ppm in series [2] is at least 80%. For the same compound, the inhibition at 200 ppm with Plasmopara viticola is at least 80%. Moreover, the inhibition at 200 ppm in the series on Pythium ultimum was at least 80%. For the same compound, the inhibition at 200 ppm in the series with Phytophthora infestans was at least 80%.
On to `C#Cc1cnc2ccc(OC(SC)C(=O)NC(C)(C)c3cccc(C)n3)cc2c1` (stereo not shown) [Compound 15], for which the melting point was determined as 148 °C. For the same compound, the inhibition at 200 ppm in series [1] is at least 80%. For the same compound, the inhibition at 200 ppm in series [2] is at least 80%. In the series with Plasmopara viticola, the inhibition at 200 ppm is at least 80%. Moreover, the inhibition at 200 ppm with Pythium ultimum was at least 80%. Further, in the series with Phytophthora infestans, the inhibition at 200 ppm is at least 80%.
`C#Cc1cnc2ccc(OC(SC)C(=O)NC(C)(C)c3cc(C)ccn3)cc2c1` (stereo not shown) [Compound 18, 2-[(3-ethynyl-6-quinolyl)oxy]-N-[1-methyl-1-(4-methyl-2-pyridyl)ethyl]-2-methylsulfanyl-acetamide] yielded a melting point of 63 °C. The inhibition at 200 ppm in series [1] was at least 80%. For the same compound, the inhibition at 200 ppm in series [2] was at least 80%. The inhibition at 200 ppm with Plasmopara viticola is at least 80%. Moreover, the inhibition at 200 ppm with Pythium ultimum was at least 80%. For the same compound, in the series on Phytophthora infestans, the inhibition at 200 ppm was at least 80%.
`C#Cc1cnc2ccc(OC(SC)C(=O)NC(C)(CC)c3nc(C)cs3)cc2c1` (stereo not shown) [Compound 20] registered a melting point of 120 °C. Further, the inhibition at 200 ppm in series [1] is at least 80%. The inhibition at 200 ppm in series [2] was at least 80%. For the same compound, in the series on Plasmopara viticola, the inhibition at 200 ppm was at least 80%. Moreover, the inhibition at 200 ppm with Pythium ultimum is at least 80%. Also, the inhibition at 200 ppm with Phytophthora infestans was at least 80%.
Take `C#Cc1cnc2ccc(OC(SC)C(=O)NC(C)(C)c3ccccn3)cc2c1` (stereo not shown) [Compound 33]: the inhibition at 200 ppm (in series [1]; in series [2]; with Plasmopara viticola; with Pythium ultimum; with Phytophthora infestans) was at least 80% each time.
As for `C#Cc1cnc2c(C)cc(OC(SC)C(=O)NC(C)(C)c3ccon3)cc2c1` (stereo not shown) [Compound 39, 2-[(3-ethynyl-8-methyl-6-quinolyl)oxy]-N-(1-isoxazol-3-yl-1-methyl-ethyl)-2-methylsulfanyl-acetamide], the inhibition at 200 ppm (in series [1]; in series [2]; in the series with Plasmopara viticola; in the series with Pythium ultimum; in the series on Phytophthora infestans) was at least 80% each time.
With `C#Cc1cnc2ccc(OC(SC)C(=O)NC(C)(C)c3ccon3)cc2c1` (stereo not shown) [Compound 44], the inhibition at 200 ppm (in series [1]; in series [2]; in the series with Plasmopara viticola; in the series with Pythium ultimum; in the series on Phytophthora infestans) was at least 80% each time.
`C#Cc1cnc2c(C)cc(OC(SC)C(=O)NC(C)(C)c3nocc3Br)cc2c1` (stereo not shown) [Compound 45, N-[1-(4-bromoisoxazol-3-yl)-1-methyl-ethyl]-2-[(3-ethynyl-8-methyl-6-quinolyl)oxy]-2-methylsulfanyl-acetamide] returned a melting point of 63 to 65 °C. Further, the inhibition at 200 ppm in series [1] is at least 80%. Also, the inhibition at 200 ppm in series [2] is at least 80%. Further, the inhibition at 200 ppm in the series on Plasmopara viticola is at least 80%. In the series with Pythium ultimum, the inhibition at 200 ppm is at least 80%.
With `C#Cc1cnc2ccc(OC(SC)C(=O)NC(C)(C)c3nocc3Cl)cc2c1` (stereo not shown) [Compound 51], the inhibition at 200 ppm (in series [1]; in series [2]; in the series on Plasmopara viticola; with Pythium ultimum; with Phytophthora infestans) was at least 80% each time.
For `C#Cc1cnc2ccc(OC(SC)C(=O)NC(C)(C)c3cc(C)on3)cc2c1` (stereo not shown) [Compound 53], the inhibition at 200 ppm (in series [1]; in series [2]; in the series with Plasmopara viticola; in the series on Pythium ultimum; in the series on Phytophthora infestans) was at least 80% in each case.
Regarding `C#Cc1cnc2c(Cl)cc(OC(SC)C(=O)NC(C)(C)c3cc(C)on3)cc2c1` (stereo not shown) [Compound 68], the inhibition at 200 ppm (in series [1]; in series [2]; with Plasmopara viticola; in the series with Pythium ultimum) was at least 80% in each case.
As for `C#Cc1cnc2ccc(OC(SC)C(=O)NC(C)(C)c3cc(Cl)on3)cc2c1` (stereo not shown) [Compound 73], the inhibition at 200 ppm (in series [1]; in series [2]; in the series with Plasmopara viticola; in the series with Pythium ultimum; in the series on Phytophthora infestans) was at least 80% throughout.
As for `C#Cc1cnc2c(C)cc(OC(SC)C(=O)NC(C)(C)c3nocc3C)cc2c1` (stereo not shown) [Compound 75], the inhibition at 200 ppm (in series [2]; with Plasmopara viticola; in the series with Pythium ultimum) was at least 80% in each case.
For `C#Cc1cnc2ccc(OC(SC)C(=O)NC(C)(C)c3nocc3C)cc2c1` (stereo not shown) [Compound 78], the inhibition at 200 ppm (in series [1]; in series [2]; in the series with Plasmopara viticola; with Pythium ultimum) was at least 80% throughout.
For `C#Cc1cnc2c(Cl)cc(OC(SC)C(=O)NCc3nccs3)cc2c1` (stereo not shown) [Compound 117], the inhibition at 200 ppm (in series [1]; in series [2]; in the series on Pythium ultimum) was at least 80% each time.

Values taken from patent US20140045890A1, “NOVEL COMPOUNDS” (SYNGENTA PARTICIPATIONS AG, priority 2011, published 2014).
